According to patent publication US20250304596A1, “PYRAZINE DERIVATIVES AND USES THEREOF” (FOGHORN THERAPEUTICS INC., priority 2022, published 2025):

What was measured:
[1] = target: T1, HiBit-BRM fusion protein (Homo sapiens, UniProt P51531); assay: HiBiT-BRM cell-based degradation assay (Nano-Glo HiBiT Lytic Detection, 24 h); conditions: stable HeLa cell line expressing HiBiT-BRM; for DC50: read-out: BRM HiBit Degradation IC50
T1 construct: expressed in transfected cells
Protocol: (§1) Procedure: A stable HeLa cell line expressing HiBiT-BRM was generated. On day 0, 5000 cells were seeded in 40 μL of media into each well of 384-well cell culture plates. On day 1, cells were treated with 120 nL DMSO or 120 nL of 3-fold serially DMSO-diluted compounds (10 points in duplicate with 30 μM as final top dose). Subsequently plates were incubated for 24 h in a standard tissue culture incubator and equilibrated at room temperature for 15 minutes. Nano-Glo HiBiT Lytic Detection System (Promega N3050) reagent was freshly prepared and 20 ul was added to each well. Upon addition of this LgBit-containing reagent, the HiBiT and LgBiT proteins associate to form the luminescent NanoBiT Iuciferase. The plates were shaken for 10 minutes at room temperature and the bioluminescence read using an EnVision plate reader (PerkinElmer).
(§2) The degradation % was calculated using the following formula: % degradation=100%-100%×(LumSample−LumLC)/(LumHC−LumLC). DMSO treated cells are employed as High Control (HC) and 2 μM of a known BRM/BRG1 degrader standard treated cells are employed as Low Control (LC).

[2] = target: T2, HiBit-BRG1 fusion protein (Homo sapiens, UniProt P51532); assay: HiBiT-BRG1 cell-based degradation assay (Nano-Glo HiBiT Lytic Detection, 24 h); conditions: stable HeLa cell line expressing HiBit-BRG1 and LgBit; for Dmax: read-out: BRG1 HiBit Degradation Maximum (%); for DC50: read-out: BRMG1 HiBit Degradation IC50
T2 construct: expressed in transfected cells
T2 sequence (P51532 whole entry, the tested form may be a part): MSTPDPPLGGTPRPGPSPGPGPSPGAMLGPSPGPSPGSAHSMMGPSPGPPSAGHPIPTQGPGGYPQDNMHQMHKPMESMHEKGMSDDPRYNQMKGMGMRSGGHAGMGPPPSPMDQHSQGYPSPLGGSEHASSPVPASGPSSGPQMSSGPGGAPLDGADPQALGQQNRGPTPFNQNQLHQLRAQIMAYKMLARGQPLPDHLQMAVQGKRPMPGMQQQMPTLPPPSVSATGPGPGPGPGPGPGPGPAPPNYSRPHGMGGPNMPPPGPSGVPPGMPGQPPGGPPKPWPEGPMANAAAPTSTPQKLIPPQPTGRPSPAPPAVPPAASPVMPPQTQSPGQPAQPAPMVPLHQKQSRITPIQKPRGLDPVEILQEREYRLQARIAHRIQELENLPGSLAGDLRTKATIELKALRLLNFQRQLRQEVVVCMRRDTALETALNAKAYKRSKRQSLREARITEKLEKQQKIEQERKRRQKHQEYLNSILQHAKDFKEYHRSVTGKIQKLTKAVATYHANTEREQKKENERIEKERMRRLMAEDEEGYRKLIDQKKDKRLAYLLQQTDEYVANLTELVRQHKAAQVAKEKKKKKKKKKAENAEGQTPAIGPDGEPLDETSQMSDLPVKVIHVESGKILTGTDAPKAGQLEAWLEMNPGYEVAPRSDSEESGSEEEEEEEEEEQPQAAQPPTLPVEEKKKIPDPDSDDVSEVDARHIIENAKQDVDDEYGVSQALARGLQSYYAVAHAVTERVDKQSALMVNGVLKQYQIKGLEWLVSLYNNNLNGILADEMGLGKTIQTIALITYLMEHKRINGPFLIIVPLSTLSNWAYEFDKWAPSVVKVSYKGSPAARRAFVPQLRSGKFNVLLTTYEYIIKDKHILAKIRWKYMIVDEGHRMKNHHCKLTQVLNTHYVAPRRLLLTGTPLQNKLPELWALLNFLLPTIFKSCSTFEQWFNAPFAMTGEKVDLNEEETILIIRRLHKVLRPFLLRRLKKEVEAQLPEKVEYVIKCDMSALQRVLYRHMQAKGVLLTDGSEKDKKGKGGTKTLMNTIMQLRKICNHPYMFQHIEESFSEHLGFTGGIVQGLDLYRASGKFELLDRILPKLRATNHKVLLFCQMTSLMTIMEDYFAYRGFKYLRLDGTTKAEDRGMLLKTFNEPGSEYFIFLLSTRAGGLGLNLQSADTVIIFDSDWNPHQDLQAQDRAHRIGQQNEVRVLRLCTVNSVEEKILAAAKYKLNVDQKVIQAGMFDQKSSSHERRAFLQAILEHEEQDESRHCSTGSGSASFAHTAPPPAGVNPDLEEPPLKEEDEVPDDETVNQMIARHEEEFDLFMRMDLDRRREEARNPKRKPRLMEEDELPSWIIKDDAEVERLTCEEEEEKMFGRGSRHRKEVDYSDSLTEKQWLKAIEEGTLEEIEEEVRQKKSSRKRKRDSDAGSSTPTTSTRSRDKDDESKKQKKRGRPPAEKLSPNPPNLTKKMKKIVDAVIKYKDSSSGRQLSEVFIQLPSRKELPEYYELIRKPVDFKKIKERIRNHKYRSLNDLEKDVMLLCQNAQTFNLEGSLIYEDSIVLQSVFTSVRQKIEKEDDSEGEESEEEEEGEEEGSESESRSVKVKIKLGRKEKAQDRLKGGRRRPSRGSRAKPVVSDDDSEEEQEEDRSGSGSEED
Protocol: as §1
For measurement of BRG1 degradation, a stable HeLa cell line expressing HiBit-BRG1 and LgBit was generated. The same protocol as above was then followed.
as §2

T1 sequence (P51531 whole entry, the tested form may be a part): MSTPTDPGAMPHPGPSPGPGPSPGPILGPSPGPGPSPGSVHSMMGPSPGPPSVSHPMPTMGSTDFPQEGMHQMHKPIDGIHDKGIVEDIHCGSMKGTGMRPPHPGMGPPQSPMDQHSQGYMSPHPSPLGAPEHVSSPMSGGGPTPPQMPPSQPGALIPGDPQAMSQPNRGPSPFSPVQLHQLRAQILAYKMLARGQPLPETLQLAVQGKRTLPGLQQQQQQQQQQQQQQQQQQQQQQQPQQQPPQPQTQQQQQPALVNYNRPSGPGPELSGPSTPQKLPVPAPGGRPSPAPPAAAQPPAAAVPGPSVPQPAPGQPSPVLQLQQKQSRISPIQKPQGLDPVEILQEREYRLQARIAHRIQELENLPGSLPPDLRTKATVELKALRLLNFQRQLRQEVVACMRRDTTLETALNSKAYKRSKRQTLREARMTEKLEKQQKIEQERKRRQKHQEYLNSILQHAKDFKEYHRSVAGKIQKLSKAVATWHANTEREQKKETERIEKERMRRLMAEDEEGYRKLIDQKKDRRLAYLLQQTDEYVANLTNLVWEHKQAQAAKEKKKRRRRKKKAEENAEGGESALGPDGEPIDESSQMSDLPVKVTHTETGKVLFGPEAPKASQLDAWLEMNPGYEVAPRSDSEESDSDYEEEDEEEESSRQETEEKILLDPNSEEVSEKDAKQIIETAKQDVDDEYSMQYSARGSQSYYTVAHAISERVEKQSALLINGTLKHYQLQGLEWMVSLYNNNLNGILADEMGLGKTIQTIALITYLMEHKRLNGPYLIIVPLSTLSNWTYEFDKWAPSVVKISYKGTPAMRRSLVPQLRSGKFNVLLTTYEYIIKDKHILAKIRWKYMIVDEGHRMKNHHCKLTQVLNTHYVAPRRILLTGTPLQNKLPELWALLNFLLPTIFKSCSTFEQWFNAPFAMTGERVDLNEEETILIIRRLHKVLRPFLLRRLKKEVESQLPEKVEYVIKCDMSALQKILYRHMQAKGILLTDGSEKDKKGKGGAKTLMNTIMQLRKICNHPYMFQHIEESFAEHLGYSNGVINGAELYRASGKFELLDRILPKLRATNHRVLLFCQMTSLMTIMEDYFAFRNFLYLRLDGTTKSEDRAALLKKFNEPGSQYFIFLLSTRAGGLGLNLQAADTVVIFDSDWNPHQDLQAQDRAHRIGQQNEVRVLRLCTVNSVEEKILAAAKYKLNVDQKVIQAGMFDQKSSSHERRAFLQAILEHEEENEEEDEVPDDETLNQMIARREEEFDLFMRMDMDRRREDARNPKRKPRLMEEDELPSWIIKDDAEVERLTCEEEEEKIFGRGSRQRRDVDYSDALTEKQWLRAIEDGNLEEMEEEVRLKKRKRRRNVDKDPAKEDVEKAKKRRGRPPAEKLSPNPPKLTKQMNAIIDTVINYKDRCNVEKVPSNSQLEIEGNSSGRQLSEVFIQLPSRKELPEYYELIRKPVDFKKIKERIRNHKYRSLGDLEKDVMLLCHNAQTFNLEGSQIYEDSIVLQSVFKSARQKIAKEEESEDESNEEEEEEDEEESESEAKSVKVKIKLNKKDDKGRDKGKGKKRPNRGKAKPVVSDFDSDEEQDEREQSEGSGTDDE

DC50 [1] [nM]	Dmax [2] [%]	DC50 [2] [nM]	Structure (SMILES)	BRM HiBit Degradation Maximum (%) [1]
> 10	< 50	> 1000	Cc1ncsc1-c1ccc([C@H](C)NC(=O)[C@@H]2C[C@@H](O)CN2C(=O)[C@@H](c2cc(-c3cnc(N4CCC5(CC4)CC(c4sc6nnc(-c7ccccc7O)cc6c4C)C5)nc3)no2)C(C)C)cc1 [Compound 48, (2S,4R)-4-hydroxy-1-((R)-2-(3-(2-(2-(3-(2-hydroxyphenyl)-5-methylthieno[2,3-c]pyridazin-6-yl)-7-azaspiro[3.5]nonan-7-yl)pyrimidin-5-yl)isoxazol-5-yl)-3-methylbutanoyl)-N-((S)-1-(4-(4-methylthiazol-5-yl)phenyl)ethyl)pyrrolidine-2-carboxamide]	A (“A” indicates maximum degradation ≥75%)
> 10	< 50		Cc1ncsc1-c1ccc([C@H](C)NC(=O)[C@@H]2C[C@@H](O)CN2C(=O)[C@@H](c2cc(-c3cnc(CN4CCC(c5cc6cc(-c7ccccc7O)nnc6s5)CC4)nc3)no2)C(C)C)cc1 (single isomer, unassigned) [Compound 99]	B (“B” indicates maximum degradation ≥50%)
< 10	< 50	> 1000	Cc1ncsc1-c1ccc([C@H](C)NC(=O)[C@@H]2C[C@@H](O)CN2C(=O)[C@@H](c2cc(-c3cnc(N4CC[C@H](c5sc6nnc(-c7ccccc7O)cc6c5C)C[C@@H]4C)nc3)no2)C(C)C)cc1 [Compound 27, (2S,4R)-4-hydroxy-1-((R)-2-(3-(2-((2S,4S)-4-(3-(2-hydroxyphenyl)-5-methylthieno[2,3-c]pyridazin-6-yl)-2-methylpiperidin-1-yl)pyrimidin-5-yl)isoxazol-5-yl)-3-methylbutanoyl)-N-((S)-1-(4-(4-methylthiazol-5-yl)phenyl)ethyl)pyrrolidine-2-carboxamide]	A (“A” indicates maximum degradation ≥75%)
< 10	< 50	> 1000	Cc1ncsc1-c1ccc([C@H](C)NC(=O)[C@@H]2C[C@@H](O)CN2C(=O)[C@@H](c2cc(-c3ccc(N4CCC(c5sc6nnc(-c7ccccc7O)cc6c5C)CC4)nn3)no2)C(C)C)cc1 [Compound 57, (2S,4R)-4-hydroxy-1-((R)-2-(3-(6-(4-(3-(2-hydroxyphenyl)-5-methylthieno[2,3-c]pyridazin-6-yl)piperidin-1-yl)pyridazin-3-yl)isoxazol-5-yl)-3-methylbutanoyl)-N-((S)-1-(4-(4-methylthiazol-5-yl)phenyl)ethyl)pyrrolidine-2-carboxamide]	A (“A” indicates maximum degradation ≥75%)
> 10	> 50	> 100	Cc1ncsc1-c1ccc([C@H](C)NC(=O)[C@@H]2C[C@@H](O)CN2C(=O)[C@@H](c2cc(-c3ccc(N4CC(c5cc6cc(-c7ccccc7O)nnc6s5)C4)nn3)no2)C(C)C)cc1 [Compound 24, (2S,4R)-4-hydroxy-1-((R)-2-(3-(6-(3-(3-(2-hydroxyphenyl)thieno[2,3-c]pyridazin-6-yl)azetidin-1-yl)pyridazin-3-yl)isoxazol-5-yl)-3-methylbutanoyl)-N-((S)-1-(4-(4-methylthiazol-5-yl)phenyl)ethyl)pyrrolidine-2-carboxamide]	A (“A” indicates maximum degradation ≥75%)
> 10	> 50	> 100	Cc1nc(N2CCC(c3sc4nnc(-c5ccccc5O)cc4c3C)CC2)ccc1-c1noc(C(C(=O)N2C[C@H](O)C[C@H]2C(=O)N[C@@H](C)c2ccc(-c3scnc3C)cc2)C(C)C)c1Cl (stereo in doubt) [Compound 21, (2S,4R)-1-((S)-2-(4-chloro-3-(6-(4-(3-(2-hydroxyphenyl)-5-methylthieno[2,3-c]pyridazin-6-yl)piperidin-1-yl)-2-methylpyridin-3-yl)isoxazol-5-yl)-3-methylbutanoyl)-4-hydroxy-N-((S)-1-(4-(4-methylthiazol-5-yl)phenyl)ethyl)pyrrolidine-2-carboxamide]	A (“A” indicates maximum degradation ≥75%)
< 10	< 50	> 1000	Cc1ncsc1-c1ccc([C@H](C)NC(=O)[C@@H]2C[C@@H](O)CN2C(=O)[C@@H](c2cc(N3CC4(CC(c5sc6nnc(-c7ccccc7O)cc6c5C)C4)C3)no2)C(C)C)cc1 [Compound 23, (2S,4R)-4-hydroxy-1-((R)-2-(3-(6-(3-(2-hydroxyphenyl)-5-methylthieno[2,3-c]pyridazin-6-yl)-2-azaspiro[3.3]heptan-2-yl)isoxazol-5-yl)-3-methylbutanoyl)-N-((S)-1-(4-(4-methylthiazol-5-yl)phenyl)ethyl)pyrrolidine-2-carboxamide]	A (“A” indicates maximum degradation ≥75%)
< 10	> 75	> 10	Cc1ncsc1-c1ccc([C@H](C)NC(=O)[C@@H]2C[C@@H](O)CN2C(=O)C(c2cc([C@H]3CC[C@H](c4cnc(N5CCC(c6sc7nnc(-c8ccccc8O)cc7c6C)CC5)nc4)CC3)no2)C(C)C)cc1 (stereo partly drawn) [Compound 64, (2S,4R)-4-hydroxy-1-((R)-2-(3-((1s,4S)-4-(2-(4-(3-(2-hydroxyphenyl)-5-methylthieno[2,3-c]pyridazin-6-yl)piperidin-1-yl)pyrimidin-5-yl)cyclohexyl)isoxazol-5-yl)-3-methylbutanoyl)-N—((S)-1-(4-(4-methylthiazol-5-yl)phenyl)ethyl)pyrrolidine-2-carboxamide]	A (“A” indicates maximum degradation ≥75%)
< 10	< 50		Cc1nc(N2CC[C@H](c3sc4nnc(-c5ccccc5O)cc4c3C)C2)ccc1-c1cc([C@H](C(=O)N2C[C@H](O)C[C@H]2C(=O)N[C@@H](C)c2ccc(-c3scnc3C)cc2)C(C)C)on1 [Compound 95, (2S,4R)-4-hydroxy-1-((R)-2-(3-(6-((S)-3-(3-(2-hydroxyphenyl)-5-methylthieno[2,3-c]pyridazin-6-yl)pyrrolidin-1-yl)-2-methylpyridin-3-yl)isoxazol-5-yl)-3-methylbutanoyl)-N-((S)-1-(4-(4-methylthiazol-5-yl)phenyl)ethyl)pyrrolidine-2-carboxamide]	A (“A” indicates maximum degradation ≥75%)
< 10	< 50		Cc1ncsc1-c1ccc([C@H](C)NC(=O)[C@@H]2C[C@@H](O)CN2C(=O)[C@@H](c2cc(N3CC4(CC(c5sc6nnc(-c7ccccc7O)cc6c5C5CC5)C4)C3)no2)C(C)C)cc1 [Compound 87, (2S,4R)-1-[(2R)-2-(3-{6-[5-cyclopropyl-3-(2-hydroxyphenyl)thieno[2,3-c]pyridazin-6-yl]-2-azaspiro[3.3]heptan-2-yl}-1,2-oxazol-5-yl)-3-methylbutanoyl]-4-hydroxy-N-[(1S)-1-[4-(4-methyl-1,3-thiazol-5-yl)phenyl]ethyl]pyrrolidine-2-carboxamide]	A (“A” indicates maximum degradation ≥75%)
> 10	> 75	> 10	Cc1ncsc1-c1ccc([C@H](C)NC(=O)[C@@H]2C[C@@H](O)CN2C(=O)[C@@H](c2cc(-c3ccnc(N4CCC(c5sc6nnc(-c7ccccc7O)cc6c5C)CC4)c3)no2)C(C)C)cc1 [Compound 10, (2S,4R)-4-hydroxy-1-((R)-2-(3-(2-(4-(3-(2-hydroxyphenyl)-5-methylthieno[2,3-c]pyridazin-6-yl)piperidin-1-yl)pyridin-4-yl)isoxazol-5-yl)-3-methylbutanoyl)-N-((S)-1-(4-(4-methylthiazol-5-yl)phenyl)ethyl)pyrrolidine-2-carboxamide]	A (“A” indicates maximum degradation ≥75%)
< 10	< 50	> 1000	Cc1ncsc1-c1ccc([C@H](C)NC(=O)[C@@H]2C[C@@H](O)CN2C(=O)[C@@H](c2cc(-c3ccc(N4CCC(c5sc6nnc(-c7ccccc7O)cc6c5C)CC4)nc3)no2)C(C)C)cc1 [Compound 59, (2S,4R)-4-hydroxy-1-((R)-2-(3-(6-(4-(3-(2-hydroxyphenyl)-5-methylthieno[2,3-c]pyridazin-6-yl)piperidin-1-yl)pyridin-3-yl)isoxazol-5-yl)-3-methylbutanoyl)-N-((S)-1-(4-(4-methylthiazol-5-yl)phenyl)ethyl)pyrrolidine-2-carboxamide]	A (“A” indicates maximum degradation ≥75%)
> 10	< 50	> 1000	Cc1ncsc1-c1ccc([C@H](C)NC(=O)[C@@H]2C[C@@H](O)CN2C(=O)[C@@H](c2cc(-c3cnc(N4CCC(O)(c5sc6nnc(-c7ccccc7O)cc6c5C)CC4)nc3)no2)C(C)C)cc1 [Compound 52, (2S,4R)-4-hydroxy-1-((R)-2-(3-(2-(4-hydroxy-4-(3-(2-hydroxyphenyl)-5-methylthieno[2,3-c]pyridazin-6-yl)piperidin-1-yl)pyrimidin-5-yl)isoxazol-5-yl)-3-methylbutanoyl)-N-((S)-1-(4-(4-methylthiazol-5-yl)phenyl)ethyl)pyrrolidine-2-carboxamide]	B (“B” indicates maximum degradation ≥50%)
